For one assay, the system named is MCF7 cells. Kind of assay: Quantitative nanoLC-MS/MS (TMT) of ADMA-containing peptides, CARM1 KO vs parental. Format: cell-based, human. Set-up: Fold change KO/WT: scale not given here.
The test system of the next assay is MCF7 CARM1 KO cells. Briefly: Quantitative MS of ADMA-containing peptides in MCF7 CARM1 KO cells expressing CARM1 28-608 or CARM1 140-608, and in CARM1 KO. Format: cell-based, human.
[1] abbreviates: MCF7, CARM1 KO vs WT, three biological replicates each.
[2] abbreviates: CARM1 140-608 vs WT, mean of 3 replicates, log2.
[3] abbreviates: KO vs WT, mean of 3 replicates, log2.
Where [4] appears, read: ADMA-containing peptide, CARM1 knockout (KO) vs wild type (WT) MCF7 cells, 6-plex TMT experiment #1, three biological replicates each, sheet "MCF7".
Setting [5] is: difference of log2 means, CARM1 140-608 vs WT.
[6] abbreviates: difference of log2 means, KO vs WT.
Setting [7] is: MCF7 CARM1 knockout vs wild type, 3 biological replicates each, values are on log2 scale.
The mark [8] stands for this setting: ADMA-containing peptide, MCF7, CARM1 knockout (KO1-3) vs wild type (WT1-3), TMT 6-plex experiment #1.
[9] abbreviates: MCF7, CARM1 knockout vs wild type, n = 3 each.
The mark [10] stands for this setting: mean, CARM1 140-608 versus WT (log2 scale).
The mark [11] stands for this setting: mean, CARM1 KO versus WT (log2 scale).
[12] abbreviates: ratio on log2 scale, mean of 3 replicates.
[13] abbreviates: CARM1 140-608 versus WT, difference of mean log2 values.
Setting [14] is: CARM1 KO versus WT, difference of mean log2 values.
Setting [15] is: CARM1 140-608 versus WT, mean of three replicates (log2).
[16] abbreviates: KO versus WT, mean of three replicates (log2).
[17] abbreviates: MCF7, CARM1 KO (KO1-KO3) vs wild type (WT1-WT3).

Results on 26 substances are retold here after paper PMC5458078, “Global mapping of CARM1 substrates defines enzyme specificity and substrate recognition” (Nature Communications, 2017).

Like-named read-outs stand apart in the source and are kept apart here.

Turning to LPGTPPLFSPPPrHHLDPHR, the “Fold change KO/WT” value in the assay with MCF7 cells (setting [1]) is given as -1.221. In the assay on MCF7 CARM1 KO cells (setting [2]), the “CARM1 140-608/WT” value is -1.232. The same substance showed a KO/WT in the assay on MCF7 CARM1 KO cells (setting [3]) of -1.196.
For “NSCPGPLDSSAFLSSDFLLPEDPKPrLPPPPVPPPLLHYPPPAK”, the “Fold change KO/WT” value in the assay on MCF7 cells (setting [4]) is reported as -3.136. In addition, the “CARM1 140-608/WT” value in the assay with MCF7 CARM1 KO cells (setting [5]) was -1.41. The same substance gave a KO/WT in the assay on MCF7 CARM1 KO cells (setting [6]) of -3.136.
Take QrLPFSAPPGSVVEASSNLR: the “Fold change KO/WT” value with MCF7 cells (setting [7]) is on record as -1.459. Also, the “CARM1 140-608/WT” value in the assay with MCF7 CARM1 KO cells (setting [5]) is reported as -0.4663. In the assay with MCF7 CARM1 KO cells (setting [6]), this substance came in with a KO/WT of -1.419.
For the substance LAQDPYrLGHDPYR, in the assay with MCF7 cells (setting [8]), the “Fold change KO/WT” value is listed as -0.6293. In the assay on MCF7 CARM1 KO cells, the “CARM1 140-608/WT” value is -0.7785 and the KO/WT was -0.6293.
Regarding EYFIPGTrLPPPTHGPQEYPPPPAVR, the “Fold change KO/WT” value with MCF7 cells (setting [4]) was -1.126. The “CARM1 140-608/WT” value with MCF7 CARM1 KO cells (setting [5]) amounted to 0.04953. In the assay on MCF7 CARM1 KO cells (setting [6]), this substance had a KO/WT of -1.295.
TSSGLFPrIPLQPQAPVSSIGSPVGTPK: the “Fold change KO/WT” value in the assay on MCF7 cells (setting [1]) is recorded as -2.869. Further, the “CARM1 140-608/WT” value with MCF7 CARM1 KO cells (setting [2]) is recorded as 0.8175. The KO/WT with MCF7 CARM1 KO cells (setting [3]) is -2.603.
As for LFIGGLSFETTDDSLr, the “Fold change KO/WT” value with MCF7 cells (setting [9]) is listed as -0.1032. In the assay on MCF7 CARM1 KO cells (setting [10]), the “CARM1 140-608/WT” value is listed as -0.1871. The KO/WT in the assay on MCF7 CARM1 KO cells (setting [11]) is listed as 0.1666.
For “GSQDSPAVPHPGPLQHWQPENVNQAFTrPPPPYPGNIrSPVAPPLGPrYAVFPK”, in the assay with MCF7 cells (setting [7]), the “Fold change KO/WT” value was -2.234. Besides, the “CARM1 140-608/WT” value in the assay with MCF7 CARM1 KO cells (setting [5]) is on record as -1.013. In the assay on MCF7 CARM1 KO cells (setting [6]), this substance displayed a KO/WT of -2.722.
Regarding “DYFPPGDFPGPPPAPFAMrNVYPPrGFPPYLPPrPGFFPPPPHSEGR”, the “Fold change KO/WT” value with MCF7 cells (setting [9]) was -2.577. In addition, in the assay on MCF7 CARM1 KO cells (setting [12]), the “CARM1 140-608/WT” value is listed as -0.7489 and the KO/WT was -2.577.
In the case of SKPQLArYLGGSMDLSTFDFR, the “Fold change KO/WT” value in the assay with MCF7 cells (setting [4]) is -0.3057. Moreover, the “CARM1 140-608/WT” value in the assay with MCF7 CARM1 KO cells (setting [5]) is listed as -0.3331. Moreover, the KO/WT in the assay on MCF7 CARM1 KO cells (setting [6]) is -0.5289.
Take VIGTAVArYNFAAR: in the assay on MCF7 cells (CARM1 KO vs wild type MCF7 cells, 3 biological replicates each), the “Fold change KO/WT” value is on record as -2.89. Further, the “CARM1 140-608/WT” value in the assay with MCF7 CARM1 KO cells (setting [13]) was -1.8723. In the assay on MCF7 CARM1 KO cells (setting [14]), this substance had a KO/WT of -2.89.
Consider TPGQINLAQLrLQHMQQQVYAQK, for which the “Fold change KO/WT” value in the assay on MCF7 cells (setting [8]) is recorded as -4.121. Besides, in the assay on MCF7 CARM1 KO cells (setting [13]), the “CARM1 140-608/WT” value is on record as -3.552. In the assay on MCF7 CARM1 KO cells (setting [14]), this substance yielded a KO/WT of -5.003.
Regarding SGFAATSQPGPrLPFIQHSQNPrFYHK, the “Fold change KO/WT” value in the assay on MCF7 cells (setting [9]) is -3.247. In the assay with MCF7 CARM1 KO cells (setting [10]), the “CARM1 140-608/WT” value is listed as -0.6332. Moreover, in the assay on MCF7 CARM1 KO cells (setting [11]), the KO/WT was -3.722.
Take “NDTKDDLGNLNVPDSSLPAENEATGPGFVPPPLAPIrGPLFPVDArGPFLR”: the “Fold change KO/WT” value in the assay on MCF7 cells (setting [9]) was -2.279. Further, in the assay on MCF7 CARM1 KO cells (setting [12]), the “CARM1 140-608/WT” value is reported as 0.1654 and the KO/WT was -2.602.
Consider QMAVPSFTQQILCPKPVHVrPPMPPrYPAPYGER, for which, in the assay with MCF7 cells (setting [4]), the “Fold change KO/WT” value is reported as -2.943. The “CARM1 140-608/WT” value in the assay on MCF7 CARM1 KO cells (setting [15]) came out at 0.05331. Further, the KO/WT in the assay on MCF7 CARM1 KO cells (setting [16]) was -2.9202.
Turning to GVVDSDDLPLNVSr, the “Fold change KO/WT” value with MCF7 cells (setting [7]) is given as -0.9856. Further, in the assay on MCF7 CARM1 KO cells (setting [10]), the “CARM1 140-608/WT” value is on record as -0.04605. This substance also gave a KO/WT with MCF7 CARM1 KO cells (setting [11]) of -1.284.
Turning to NRPAIArGAAGGGGR, in the assay on MCF7 cells (setting [1]), the “Fold change KO/WT” value is on record as 0.06918. The “CARM1 140-608/WT” value in the assay on MCF7 CARM1 KO cells (setting [2]) was -0.06003. The substance also yielded a KO/WT with MCF7 CARM1 KO cells (setting [3]) of 0.534.
For QLPNAGPGAPPALGFSrFPAGAR, in that order: -2.458, -1.8557 and -2.458.
In the case of FrLSLFSDLPEDTELQR, the “Fold change KO/WT” value in the assay on MCF7 cells (setting [17]) is -2.692. In addition, the “CARM1 140-608/WT” value with MCF7 CARM1 KO cells (CARM1 140-608 vs WT, mean of 3 replicates (log2 scale)) was -2.025. The substance also gave a KO/WT in the assay with MCF7 CARM1 KO cells (KO vs WT, mean of 3 replicates (log2 scale)) of -2.692.
INPLPGGrNFSGTASTSLLGPPPGLLTPPVATELSQNAR: the “Fold change KO/WT” value in the assay on MCF7 cells (setting [1]) is -2.627. Also, the “CARM1 140-608/WT” value in the assay with MCF7 CARM1 KO cells (setting [2]) is -1.005. The substance also gave a KO/WT in the assay with MCF7 CARM1 KO cells (setting [3]) of -2.627.
Turning to FSPNPPQQGAVrPQTLNFSSR, the “Fold change KO/WT” value in the assay on MCF7 cells (setting [1]) is on record as -3.724. For the same substance, in the assay with MCF7 CARM1 KO cells (setting [12]), the “CARM1 140-608/WT” value is listed as 1.2079 and the KO/WT was -1.542.
As to GGAPFQFGGQrRPLLSQLK, the “Fold change KO/WT” value in the assay with MCF7 cells (setting [9]) is given as -0.3698. In addition, in the assay on MCF7 CARM1 KO cells (setting [12]), the “CARM1 140-608/WT” value amounted to 0.1701 and the KO/WT came to 0.08114.
With SGFAATSQPGPrLPFIQHSQNPR, the “Fold change KO/WT” value in the assay on MCF7 cells (setting [9]) is -1.049. Besides, in the assay with MCF7 CARM1 KO cells (setting [10]), the “CARM1 140-608/WT” value is listed as -0.196. The KO/WT in the assay with MCF7 CARM1 KO cells (setting [11]) is on record as -1.374.
As to “ATSPrPrAFDGAGSSLGrAPSPrPGPGPLrQQGPPTPFDFLGR”, the “Fold change KO/WT” value in the assay on MCF7 cells (setting [17]) is recorded as -2.635. The “CARM1 140-608/WT” value with MCF7 CARM1 KO cells (setting [15]) is listed as -2.092. The substance also gave a KO/WT with MCF7 CARM1 KO cells (setting [16]) of -2.635.
Take QSSATSSFGGLGGGSVrFGPGVAFrAPSIHGGSGGR: the “Fold change KO/WT” value in the assay with MCF7 cells (setting [7]) is -1.828. Also, the “CARM1 140-608/WT” value in the assay with MCF7 CARM1 KO cells (setting [5]) is listed as -1.331. For the same substance, the KO/WT in the assay on MCF7 CARM1 KO cells (setting [6]) is given as -1.828.
In the case of GFYPQYGALETrGGFNPR, the “Fold change KO/WT” value in the assay with MCF7 cells (setting [7]) is given as -0.3326. The “CARM1 140-608/WT” value in the assay with MCF7 CARM1 KO cells (setting [10]) was -0.6578. Further, the KO/WT in the assay on MCF7 CARM1 KO cells (setting [11]) is -0.432.
